Measurements: patent publication US20050020483A1, “Sigma ligands for neuronal regeneration and functional recovery” (priority 2003, published 2005)

Tests used:
[1] = tested on: sigma-1 site compared to the sigma-2 site; details: (+) isomers of benzomorphan opiates; cited from earlier work
[2] = tested on: SHR (spontaneous hypertensive) rats, stroke by MCA occlusion; assay: Rotating pole or cylinder test after MCA occlusion (Example 1); type: in vivo, rat; details: 0.03-10 mg/kg s.c. or p.o. from two days after MCAO for 2-8 weeks; present-tense example
Source text: Male 3 months old SHR (spontaneous hypertensive) rats are used for induction of stroke by MCA occlusion. This is the preferred strain since most stroke patients are hypertensive. The animals are anesthetized with Methohexital and a small craniectomy is made above the zygmotic arch to expose the middle cerebral artery, which is occluded with a 10-0 monofilament nylon thread distal to the origin of the striatal branches. The rats are not intubated and no catheters are inserted. Following MCA occlusion a large and reproducible infarct is obtained, leading to a robust sensorimotor deficit. The animals are kept on a 6 hr light/18 h dark cycle with free access to food and water. At two days after the MCAO the rats are treated with the compound I, II, III, IV, V, VI, VII, VIII, or IX (0.03-10 mg/kg) s.c. or p.o. and a control group is given saline for 2-8 weeks. At 2, 4, 6 and 8 weeks animals are tested in the rotating pole or cylinder test
(§1) The cylinder test (modified from Schallert and Tillerson (Innovative models of CNS disease: from molecule to therapy. Clifton, N.J., Humana, 1999) is used to quantify the forelimb use for rearing on the cylinder wall. The rats are monitored as they move freely in a 20-cm-wide clear glass cylinder. Contacts made by each forepaw with the cylinder wall while rearing are scored by a blinded observer. A total of 20 contacts are recorded for each animal, and the number of impaired (left), both, and non-impaired forelimb contacts as percentage of total contacts is calculated. Baseline for rats is achieved by measuring the contacts made by each forepaw before MCAO.

[3] = tested on: NMDA-induced toxicity and seizures; details: in vivo models; cited from earlier work
[4] = tested on: rat primary neuronal cultures; details: cited from earlier work
[5] = tested on: spontaneously hypertensive rats exposed to permanent middle artery occlusion (MCAO); assay: Rotating pole test after permanent MCAO (Example 2); type: in vivo, rat; details: rotating pole score 0-6
Source text: A score of 6-0 is given for each direction:
6, the animal crosses the pole with no foot slips;
5, the animal crosses the pole with a few foot slips;
4, the animal crosses the pole, slipping 50% of the footsteps;
3, the animal crosses the pole with more than 50% foot slips;
2, the animal walks a bit and then rotates around the pole;
1, the animal rotates around the pole without crossing it;
0, the animal falls off the pole.
Thirty five spontaneously hypertensive rats were exposed to permanent middle artery occlusion (MCAO), then divided into three treatment groups. Starting at two days after occlusion and continuing daily until 28 days after occlusion, SA4503 was administered s.c. in doses of 0.3 mg/kg (12 rats) or 1.0 mg/kg (12 rats). In a control group (11 rats), vehicle only was administered. At the start of treatment, and at several time points during the test, the rats were assessed for their performance in the rotating pole model. This model is described in Example 1. It requires the rats to cross a horizontally suspended rotating pole having a length of 1 m. This task measures the sensory-motor performance of the animals. The animals' behaviour was recorded using a video camera and later analyzed and scored by a trained technician. The scoring ranges from 0 to 6, with 0 being very poor performance and 6 reflecting the performance of a healthy animal (without MCAO).

[6] = tested on: spontaneously hypertensive rats exposed to permanent middle artery occlusion (MCAO); assay: Cylinder test for asymmetric forelimb use after permanent MCAO (Example 2); type: in vivo, rat; details: 0.3 mg/kg; all time points measured
Procedure: as §1
Forty three spontaneously hypertensive rats were exposed to permanent middle artery occlusion (MCAO), then divided into three treatment groups. […] At the start of treatment, and at several time points during the test, the rats were assessed for their performance in the cylinder test. […] The performance of the rats in the test was assessed one day before permanent MCAO, then at 14 days, 28 days and 59 days after permanent MCAO. The rats were monitored as they moved freely in a 20 cm-wide clear glass cylinder. Contacts made by each forepaw with the cylinder wall while rearing were scored by a blinded observer. […]

[7] = tested on: cultured rat retinal neurons; details: cited from earlier work
[8] = tested on: ischemia in gerbils; details: cited from earlier work
[9] = hydrohalide salts, in particular the hydrochloride salt; cited from earlier work

CC(C)=CCN1CCC2(C)c3cc(O)ccc3CC1C2C (single isomer, unassigned; (+)) [(+)pentazocine]
affinity for the sigma-1 site compared to the sigma-2 site [1]: nearly two orders of magnitude higher affinity for the sigma-1 site

CCC(C/C=C/c1ccccc1)(c1ccccc1)N(C)CC1CC1 (single isomer, unassigned; (+)) [VI, (+)-N-(cyclopropylmethyl)-N-[1-ethyl-1,4-diphenyl-3(E)-butenyl]-N-methylamine]
performance in the rotating pole test or the cylinder test versus control [2]: perform better than the group 1 control animals

OC(CCCN1CCN(c2ncc(F)cn2)CC1)c1ccc(F)cc1 (stereo not shown) [BMY-14802]
protective effects against NMDA-induced toxicity and seizures [3]: consistent with affording protective effects

O=C(NC1CCN(Cc2ccccc2)CC1)c1ccc(I)cc1 [II, N-(N-benzylpiperidin-4-yl)-4-iodobenzaminde]
performance in the rotating pole test or the cylinder test versus control [2]: perform better than the group 1 control animals

O=C(OCCN1CCOCC1)C1(c2ccccc2)CCCCC1 [III, 1-phenylcyclohexane-1-carboxylic acid-2-morpholinoethyl ester]
performance in the rotating pole test or the cylinder test versus control [2]: perform better than the group 1 control animals

COc1ccc(CN2CCN(Cc3ccccc3)CC2)c(O)c1OC [IX, N-benzyl-N′-(2-hydroxy-3,4-dimethoxybenzyl)-piperazine]
performance in the rotating pole test or the cylinder test versus control [2]: perform better than the group 1 control animals

COc1ccc(CCN2CCN(CCCc3ccccc3)CC2)cc1OC [SA4503, 1-(3,4-dimethoxyphenethyl)-4-(3-phenylpropyl) piperazine]
suppression of hypoxia/hypoglycemia-induced neurotoxicity [4]: significantly suppress
total average score at day 30 ([5]; 0.3 mg/kg s.c.): 5.2
Average Increase in Score at Day 30 (SEM) ([5]; 0.3 mg/kg s.c. daily from day 2 to day 28 after MCAO): 3.5 (SEM 0.4) (p < 0.05)
Average Increase in Score at Day 30 (SEM) ([5]; 1.0 mg/kg s.c. daily from day 2 to day 28 after MCAO): 3.67 (SEM 0.48) (p < 0.05)
asymmetry of paw usage [6]: reduced to pre-MCAO levels
performance in the rotating pole test or the cylinder test versus control [2]: perform better than the group 1 control animals
activity against glutamate neurotoxicity [7]: active

COc1cccc2c1CCC(=O)N2CCCN1CCN(c2cccc(Cl)c2)CC1 [VII, 1-[3-[4-(3-chlorophenyl)piperazin-1-yl]propyl]-5-methoxy-1,2,3,4-tetrahydroquinolin-2-one]
performance in the rotating pole test or the cylinder test versus control [2]: perform better than the group 1 control animals

CN(CCc1ccc(Cl)c(Cl)c1)[C@H]1CCCC[C@H]1N1CCCC1 [VIII, (−)-(1S, 2R)-N-[2-(3,4-dichlorophenyl)ethyl]-N-methyl-2-(pyrrolidin-1-yl) cyclohexylamine]
performance in the rotating pole test or the cylinder test versus control [2]: perform better than the group 1 control animals

CCN(CC)CCOC(=O)C1(c2ccccc2)CCCC1 [caramiphen]
protective effects against NMDA-induced toxicity and seizures [3]: consistent with affording protective effects

COCCCC/C(=N\OCCN)c1ccc(C(F)(F)F)cc1 [fluvoxamine, 5-methoxy-4′-(trifluoromethyl)valerophenone O-(2-aminoethyl)oxime]
performance in the rotating pole test or the cylinder test versus control [2]: perform better than the group 1 control animals

O=C(CCCN1CCC(O)(c2ccc(Cl)cc2)CC1)c1ccc(F)cc1 [haloperidol]
protective effects against NMDA-induced toxicity and seizures [3]: consistent with affording protective effects

OCCN1CCN(CCCN2c3ccccc3C=Cc3ccccc32)CC1 [opipramol]
protection against ischemia [8]: protect against ischemia

Fc1ccc(-n2cc(CCCCN3CCC4(CC3)OCc3ccccc34)c3ccccc32)cc1 [siramesine, 1′-[4-[1-(4-fluorophenyl)-1H-indol-3-yl]-1-butyl] spiro [isobenzofuran-1(3H),4′-piperidine]]
bioavailability [9]: good bioavailability
performance in the rotating pole test or the cylinder test versus control [2]: perform better than the group 1 control animals

(+)SKF 10,047
affinity for the sigma-1 site compared to the sigma-2 site [1]: nearly two orders of magnitude higher affinity for the sigma-1 site
